Experimental data from ChEMBL document CHEMBL1141460, “Sodium channel blockers” (J Med Chem, 2007).

Assays:
[1] = target: Sodium channel protein type 10 subunit alpha (Homo sapiens, UniProt Q9Y5Y9); assay: Binding affinity to Nav1.8 sodium channel
[2] = target: Sodium channel protein type 9 subunit alpha (Homo sapiens, UniProt Q15858); assay: Binding affinity to Nav1.7 sodium channel
[3] = species: Rattus norvegicus; assay: Effect on […] in rat by rotarod test; format: functional
[4] = species: Rattus norvegicus; assay: Effect on locomotor activity in rat; format: functional
[5] = target: Sodium channel protein type 5 subunit alpha (Homo sapiens, UniProt Q14524); assay: Inhibition of inactivated human Nav1.5 sodium channel
Sodium channel protein type 5 subunit alpha, sequence (Q14524 whole entry): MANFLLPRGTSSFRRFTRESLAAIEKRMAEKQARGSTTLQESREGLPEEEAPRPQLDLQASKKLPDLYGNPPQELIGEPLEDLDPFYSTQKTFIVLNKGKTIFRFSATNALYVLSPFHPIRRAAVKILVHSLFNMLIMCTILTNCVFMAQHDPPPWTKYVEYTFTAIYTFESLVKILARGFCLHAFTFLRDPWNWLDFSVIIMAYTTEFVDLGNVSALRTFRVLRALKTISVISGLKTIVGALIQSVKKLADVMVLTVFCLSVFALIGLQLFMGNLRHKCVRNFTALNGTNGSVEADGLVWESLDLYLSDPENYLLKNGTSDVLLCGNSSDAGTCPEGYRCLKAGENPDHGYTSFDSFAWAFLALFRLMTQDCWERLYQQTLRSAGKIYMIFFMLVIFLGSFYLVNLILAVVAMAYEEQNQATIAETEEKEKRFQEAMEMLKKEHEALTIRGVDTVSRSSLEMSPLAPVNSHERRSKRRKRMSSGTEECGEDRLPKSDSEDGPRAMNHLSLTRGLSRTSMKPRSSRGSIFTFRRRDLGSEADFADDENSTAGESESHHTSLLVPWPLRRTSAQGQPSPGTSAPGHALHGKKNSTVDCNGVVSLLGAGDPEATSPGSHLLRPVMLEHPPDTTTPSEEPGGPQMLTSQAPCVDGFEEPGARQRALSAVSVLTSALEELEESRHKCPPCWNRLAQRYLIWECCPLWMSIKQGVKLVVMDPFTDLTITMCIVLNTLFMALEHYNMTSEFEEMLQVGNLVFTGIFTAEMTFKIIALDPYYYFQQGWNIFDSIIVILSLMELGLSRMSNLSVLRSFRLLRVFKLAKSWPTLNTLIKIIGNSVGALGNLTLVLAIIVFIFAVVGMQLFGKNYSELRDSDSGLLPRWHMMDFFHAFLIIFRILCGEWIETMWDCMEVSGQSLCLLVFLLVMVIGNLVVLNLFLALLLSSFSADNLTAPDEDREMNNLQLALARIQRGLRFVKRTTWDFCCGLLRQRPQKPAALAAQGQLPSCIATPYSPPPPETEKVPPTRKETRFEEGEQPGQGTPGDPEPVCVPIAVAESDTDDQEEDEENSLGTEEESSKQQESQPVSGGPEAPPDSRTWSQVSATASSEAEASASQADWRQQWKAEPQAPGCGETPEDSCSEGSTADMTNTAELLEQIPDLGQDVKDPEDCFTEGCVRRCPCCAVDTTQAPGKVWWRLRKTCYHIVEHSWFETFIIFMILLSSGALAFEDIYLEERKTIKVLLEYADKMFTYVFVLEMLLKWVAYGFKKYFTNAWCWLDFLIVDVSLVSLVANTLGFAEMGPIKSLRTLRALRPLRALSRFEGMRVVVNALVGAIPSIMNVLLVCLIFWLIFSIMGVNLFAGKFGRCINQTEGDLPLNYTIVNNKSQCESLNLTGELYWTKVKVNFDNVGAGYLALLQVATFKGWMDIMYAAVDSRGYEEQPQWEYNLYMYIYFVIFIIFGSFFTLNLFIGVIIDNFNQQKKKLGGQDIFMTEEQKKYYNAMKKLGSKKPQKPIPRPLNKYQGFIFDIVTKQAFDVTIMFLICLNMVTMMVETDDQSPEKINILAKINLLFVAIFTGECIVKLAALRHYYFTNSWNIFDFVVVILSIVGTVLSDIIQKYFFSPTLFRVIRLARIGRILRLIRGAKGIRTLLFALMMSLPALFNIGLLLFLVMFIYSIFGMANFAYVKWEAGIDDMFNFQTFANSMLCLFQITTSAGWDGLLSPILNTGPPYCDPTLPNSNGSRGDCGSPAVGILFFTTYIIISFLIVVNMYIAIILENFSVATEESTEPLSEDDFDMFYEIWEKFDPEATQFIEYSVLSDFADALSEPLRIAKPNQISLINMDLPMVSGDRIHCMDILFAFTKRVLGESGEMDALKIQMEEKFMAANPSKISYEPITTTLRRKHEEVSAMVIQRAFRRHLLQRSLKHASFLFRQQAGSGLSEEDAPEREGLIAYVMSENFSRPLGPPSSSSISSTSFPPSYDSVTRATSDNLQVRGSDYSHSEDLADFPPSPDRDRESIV

[6] = tested on: Rattus norvegicus; assay: Analgesic activity in ip dosed rat by CCI model of neuropathic pain; format: functional
[7] = target: Sodium channel protein type 2 subunit alpha (Homo sapiens, UniProt Q99250); assay: Inhibition of inactivated human Nav1.2 sodium channel
Sodium channel protein type 2 subunit alpha, sequence (Q99250 whole entry): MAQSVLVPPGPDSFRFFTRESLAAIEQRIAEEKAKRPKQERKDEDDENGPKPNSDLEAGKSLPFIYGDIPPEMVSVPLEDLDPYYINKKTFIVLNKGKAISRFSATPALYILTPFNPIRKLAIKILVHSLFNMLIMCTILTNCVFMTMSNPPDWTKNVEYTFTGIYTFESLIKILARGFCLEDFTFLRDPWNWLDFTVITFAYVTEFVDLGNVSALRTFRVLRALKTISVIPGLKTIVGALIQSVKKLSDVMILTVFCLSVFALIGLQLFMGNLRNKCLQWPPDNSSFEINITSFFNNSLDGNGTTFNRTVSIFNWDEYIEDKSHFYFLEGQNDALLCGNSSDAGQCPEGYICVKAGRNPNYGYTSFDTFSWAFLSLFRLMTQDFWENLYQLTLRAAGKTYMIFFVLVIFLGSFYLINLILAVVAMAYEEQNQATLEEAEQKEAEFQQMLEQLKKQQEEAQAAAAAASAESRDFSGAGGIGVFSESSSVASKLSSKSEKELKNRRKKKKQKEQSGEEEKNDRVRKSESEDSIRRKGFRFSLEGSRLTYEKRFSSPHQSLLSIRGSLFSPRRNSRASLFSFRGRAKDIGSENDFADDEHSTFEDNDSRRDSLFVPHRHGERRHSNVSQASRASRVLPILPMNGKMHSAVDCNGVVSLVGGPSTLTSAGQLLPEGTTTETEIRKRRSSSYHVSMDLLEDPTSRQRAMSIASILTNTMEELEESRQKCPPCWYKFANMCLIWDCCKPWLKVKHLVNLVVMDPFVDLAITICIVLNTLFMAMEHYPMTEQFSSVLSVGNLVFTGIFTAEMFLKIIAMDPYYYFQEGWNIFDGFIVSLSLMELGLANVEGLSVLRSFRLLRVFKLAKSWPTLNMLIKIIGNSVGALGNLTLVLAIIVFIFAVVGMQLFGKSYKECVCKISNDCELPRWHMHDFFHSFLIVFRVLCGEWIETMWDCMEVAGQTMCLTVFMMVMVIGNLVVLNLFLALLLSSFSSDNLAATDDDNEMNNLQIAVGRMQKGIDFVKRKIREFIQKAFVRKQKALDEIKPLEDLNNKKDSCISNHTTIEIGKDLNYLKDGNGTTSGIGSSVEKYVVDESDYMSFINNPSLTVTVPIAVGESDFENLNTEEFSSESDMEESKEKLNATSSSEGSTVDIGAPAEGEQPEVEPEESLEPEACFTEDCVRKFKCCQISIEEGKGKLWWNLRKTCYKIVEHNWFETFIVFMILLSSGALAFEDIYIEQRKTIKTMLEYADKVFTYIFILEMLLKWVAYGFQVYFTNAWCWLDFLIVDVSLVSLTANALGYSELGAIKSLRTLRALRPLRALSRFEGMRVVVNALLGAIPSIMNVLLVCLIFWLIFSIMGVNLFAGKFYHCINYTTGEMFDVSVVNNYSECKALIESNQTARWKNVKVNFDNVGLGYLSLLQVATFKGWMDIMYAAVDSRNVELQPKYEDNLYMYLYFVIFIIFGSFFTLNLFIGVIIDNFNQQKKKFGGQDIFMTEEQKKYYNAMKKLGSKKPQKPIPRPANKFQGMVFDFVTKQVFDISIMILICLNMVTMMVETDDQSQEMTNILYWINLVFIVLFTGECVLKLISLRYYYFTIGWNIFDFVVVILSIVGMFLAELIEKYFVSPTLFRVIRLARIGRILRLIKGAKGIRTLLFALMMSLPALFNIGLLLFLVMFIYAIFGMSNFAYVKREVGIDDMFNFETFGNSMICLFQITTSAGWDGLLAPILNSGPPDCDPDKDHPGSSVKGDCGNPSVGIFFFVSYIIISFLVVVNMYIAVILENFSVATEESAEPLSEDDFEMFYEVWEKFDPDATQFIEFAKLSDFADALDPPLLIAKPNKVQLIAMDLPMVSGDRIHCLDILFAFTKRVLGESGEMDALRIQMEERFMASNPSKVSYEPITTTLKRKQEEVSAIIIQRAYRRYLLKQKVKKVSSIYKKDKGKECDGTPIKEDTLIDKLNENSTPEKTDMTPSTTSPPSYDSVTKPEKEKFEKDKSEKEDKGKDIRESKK

[8] = tested on: Rattus norvegicus; assay: Analgesic activity in ip dosed rat by chung model of neuropathic pain; format: functional

| Ki [1] [µM] | Ki [2] [µM] | IC50 [7] [µM] | SMILES | ED50 [3] [µM] | ED50 [4] [µM] | IC50 [5] [µM] | ED50 [6] [µM] | ED50 [8] [µM] |
| --- | --- | --- | --- | --- | --- | --- | --- | --- |
| 0.18 | 0.25 | – | CN(Cc1ccc(-c2ccccc2S(N)(=O)=O)cc1)C(=O)[C@@H]1CCC[C@H]1C(=O)NCc1ccc(OC(F)(F)F)cc1 | – | – | – | – | – |
| – | – | 7.18 | COc1cc(NC(=O)c2ccc(-c3ccc(Cl)cc3)o2)cc(OC)c1 | >300 | >300 | 7.44 | 86 | 47 |
